ChEMBL document CHEMBL1140427, “Semi-rational design of (north)-methanocarba nucleosides as dual acting A(1) and A(3) adenosine receptor agonists: novel prototypes for cardioprotection” (J Med Chem, 2005)

Experiments:
[1] = target: T1, Adenosine receptor A3 (Homo sapiens) (UniProt P0DMS8); assay: Maximal agonist effect at human adenosine A3 receptor in CHO cells at 10 uM by the inhibition of forskolin-stimulated cAMP production; format: functional, cell-based; parameters: scale not given: the % may be the effect or the level left
T1 sequence (whole entry): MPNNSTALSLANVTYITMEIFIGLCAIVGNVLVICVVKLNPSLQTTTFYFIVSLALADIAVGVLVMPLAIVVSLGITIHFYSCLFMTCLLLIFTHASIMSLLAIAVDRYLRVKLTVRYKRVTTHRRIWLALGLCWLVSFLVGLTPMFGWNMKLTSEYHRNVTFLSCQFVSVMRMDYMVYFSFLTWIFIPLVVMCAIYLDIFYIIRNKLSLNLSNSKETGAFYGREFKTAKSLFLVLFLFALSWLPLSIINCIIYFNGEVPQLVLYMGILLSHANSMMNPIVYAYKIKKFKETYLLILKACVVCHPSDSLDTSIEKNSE

[2] = target: T2, Adenosine receptor A3 (Homo sapiens, UniProt P0DMS8); assay: Binding affinity to human adenosine A3 receptor in CHO cells
T2 sequence (P0DMS8 whole entry): T1 sequence (whole entry)

[3] = target: T3, Adenosine receptor A3 (Rattus norvegicus, UniProt P28647); assay: Binding affinity to rat adenosine A3 receptor in CHO cells; format: cell-based
T3 sequence (P28647 whole entry): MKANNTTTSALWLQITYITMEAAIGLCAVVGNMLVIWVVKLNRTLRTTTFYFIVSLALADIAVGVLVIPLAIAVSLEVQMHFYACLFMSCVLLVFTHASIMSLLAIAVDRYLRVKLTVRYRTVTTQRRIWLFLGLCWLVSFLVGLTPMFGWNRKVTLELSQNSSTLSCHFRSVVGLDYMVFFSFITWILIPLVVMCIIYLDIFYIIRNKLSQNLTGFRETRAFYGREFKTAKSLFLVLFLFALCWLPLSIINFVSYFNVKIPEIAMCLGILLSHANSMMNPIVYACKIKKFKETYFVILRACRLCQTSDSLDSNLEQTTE

[4] = target: T4, Adenosine receptor A2b (Homo sapiens, UniProt P29275); assay: Agonistic effect at human adenosine A2B receptor in CHO cells; format: functional, cell-based
T4 sequence (P29275 whole entry): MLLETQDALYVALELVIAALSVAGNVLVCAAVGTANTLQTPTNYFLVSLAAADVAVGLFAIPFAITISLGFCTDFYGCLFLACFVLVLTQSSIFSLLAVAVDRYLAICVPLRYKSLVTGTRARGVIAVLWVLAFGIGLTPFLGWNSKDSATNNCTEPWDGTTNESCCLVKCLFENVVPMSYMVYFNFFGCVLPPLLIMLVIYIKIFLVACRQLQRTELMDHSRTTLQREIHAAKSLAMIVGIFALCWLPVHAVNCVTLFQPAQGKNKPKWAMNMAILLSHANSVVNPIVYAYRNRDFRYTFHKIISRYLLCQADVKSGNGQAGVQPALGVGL

[5] = target: Adenosine receptor A2a (Homo sapiens, UniProt P29274); assay: Displacement of [3H]R-PIA or [3H]CGS 21680 from human adenosine A2A receptor in CHO cells; format: cell-based
[6] = target: T5, Adenosine receptor A1 (Homo sapiens, UniProt P30542); assay: Displacement of [3H]R-PIA or [3H]CGS 21680 from human adenosine A1 receptor in CHO cells; format: cell-based
T5 sequence (P30542 whole entry): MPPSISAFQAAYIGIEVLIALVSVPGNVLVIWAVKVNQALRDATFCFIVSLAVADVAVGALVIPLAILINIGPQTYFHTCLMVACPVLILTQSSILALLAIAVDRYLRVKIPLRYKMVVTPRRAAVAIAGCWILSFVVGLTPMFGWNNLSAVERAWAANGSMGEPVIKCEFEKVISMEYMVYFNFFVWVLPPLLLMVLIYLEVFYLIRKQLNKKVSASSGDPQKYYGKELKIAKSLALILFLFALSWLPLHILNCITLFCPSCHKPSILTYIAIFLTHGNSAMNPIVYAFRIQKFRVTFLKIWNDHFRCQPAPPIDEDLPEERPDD

[7] = target: T5, Adenosine receptor A1; assay: Agonistic effect at human adenosine A1 receptor in CHO cells; format: functional, cell-based
[8] = target: T2, Adenosine receptor A3; assay: Agonistic effect at human adenosine A3 receptor in CHO cells; format: functional, cell-based
[9] = target: T6, Adenosine receptor A1 (Rattus norvegicus, UniProt P25099); assay: Binding affinity to rat adenosine A1 receptor in CHO cells
T6 sequence (P25099 whole entry): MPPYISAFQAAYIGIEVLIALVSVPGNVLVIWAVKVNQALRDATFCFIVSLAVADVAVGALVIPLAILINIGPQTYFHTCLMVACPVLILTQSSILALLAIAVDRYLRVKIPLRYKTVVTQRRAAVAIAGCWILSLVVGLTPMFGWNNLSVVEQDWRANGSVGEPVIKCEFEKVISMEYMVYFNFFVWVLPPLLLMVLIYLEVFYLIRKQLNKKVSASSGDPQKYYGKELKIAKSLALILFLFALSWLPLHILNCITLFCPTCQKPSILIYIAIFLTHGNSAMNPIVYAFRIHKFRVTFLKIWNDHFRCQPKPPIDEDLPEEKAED

Chain of Adenosine receptor A2a (P29274 whole entry): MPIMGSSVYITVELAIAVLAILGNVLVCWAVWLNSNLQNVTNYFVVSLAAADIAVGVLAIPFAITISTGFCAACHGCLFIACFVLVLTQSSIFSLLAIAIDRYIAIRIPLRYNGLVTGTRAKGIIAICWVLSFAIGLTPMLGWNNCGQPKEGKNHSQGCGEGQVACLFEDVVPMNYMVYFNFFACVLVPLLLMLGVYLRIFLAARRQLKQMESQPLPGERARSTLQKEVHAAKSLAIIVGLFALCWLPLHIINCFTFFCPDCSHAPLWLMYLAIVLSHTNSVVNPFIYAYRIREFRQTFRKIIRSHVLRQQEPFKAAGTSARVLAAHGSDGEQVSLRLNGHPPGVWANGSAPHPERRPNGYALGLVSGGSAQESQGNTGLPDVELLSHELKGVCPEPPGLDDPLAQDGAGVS

Activity [1] [%]	Ki [2] [nM]	Ki [3] [nM]	EC50 [4] [nM]	Ki [5] [nM]	Compound	Ki [6] [nM]	EC50 [7] [nM]	EC50 [8] [nM]	Ki [9] [nM]
0	–	–	–	–	OC[C@H]1O[C@@H](n2cnc3c(NC4CCCC4)nc(Cl)nc32)[C@H](O)[C@@H]1O	–	–	–	–
72	240	–	–	462	OC[C@H]1O[C@@H](n2cnc3c(NC4CCCC4)ncnc32)[C@H](O)[C@@H]1O [N6-CYCLOPENTYLADENOSINE]	–	–	–	–

The remaining lines, values behind:

Compound	Activity [1] [%]	Ki [2] [nM]	Ki [3] [nM]	EC50 [4] [nM]	Ki [5] [nM]	Ki [6] [nM]	EC50 [7] [nM]	EC50 [8] [nM]	Ki [9] [nM]
OC[C@H]1O[C@@H](n2cnc3c(NC4C5CCC4CC5)ncnc32)[C@H](O)[C@@H]1O (stereo partly specified)	112	112	229	–	–	–	–	–	–
CNC(=O)C12C[C@@H]1[C@@H](n1cnc3c(NC4CCCC4)ncnc31)[C@H](O)[C@@H]2O (single isomer, unassigned)	93	13.1	10.2	> 10000	6420	–	–	–	–
CNC(=O)C12C[C@@H]1[C@@H](n1cnc3c(NC4C5CCC4CC5)nc(Cl)nc31)[C@H](O)[C@@H]2O (single isomer, unassigned)	92	14.6	9.6	> 10000	> 10000	190	–	–	–
CNC(=O)C12C[C@@H]1[C@@H](n1cnc3c(NC4CCCC4)nc(Cl)nc31)[C@H](O)[C@@H]2O (single isomer, unassigned)	101	3.7	–	> 10000	3250	18.3	8.2	2.8	17.4
